In the NIST ThermoML archive (doi:10.1021/je9006037):

Experiments:
[1] = 298.15 K; 101.33 kPa; Liquid
[2] = refractive index (Na D-line) (dimensionless); xn = mol fraction of the nth substance listed; conditions: 101 kPa, Liquid

CCn1cc[n+](C)c1.O=S(=O)([O-])C(F)(F)F [1-ethyl-3-methylimidazolium trifluoromethanesulfonate]
Conditions	mass density [kg/m3]
[1]	1383.58

CCn1cc[n+](C)c1.O=S(=O)([O-])C(F)(F)F [1-ethyl-3-methylimidazolium trifluoromethanesulfonate] + CCO
refractive index, [2]
Conditions	288.15 K	298.15 K	308.15 K	318.15 K	328.15 K
x1 = 0.05087	1.37603	1.37224	1.36847	1.3647	1.36088
x1 = 0.1004	1.38531	1.38169	1.37828	1.37496	1.37123
x1 = 0.1504	1.39279	1.38937	1.38635	1.38336	1.3795
x1 = 0.201	1.39891	1.39566	1.39241	1.38923	1.38584
x1 = 0.2991	1.40822	1.40549	1.40179	1.39872	1.39607
x1 = 0.3976	1.41506	1.41187	1.40885	1.40581	1.40267
x1 = 0.4976	1.42051	1.41741	1.41441	1.41137	1.40841
x1 = 0.5935	1.4247	1.42164	1.41857	1.41564	1.41275
x1 = 0.6981	1.42832	1.42536	1.42243	1.41956	1.41673
x1 = 0.7994	1.43116	1.42826	1.42543	1.42262	1.41981
x1 = 0.8407	1.4322	1.42937	1.42653	1.42372	1.42093
x1 = 0.892	1.43344	1.43061	1.42781	1.42501	1.42222
x1 = 0.9444	1.43452	1.43172	1.42894	1.42619	1.42346
x1 = 1	1.43599	1.43322	1.4304	1.42767	1.42494

CCn1cc[n+](C)c1.O=S(=O)([O-])C(F)(F)F [1-ethyl-3-methylimidazolium trifluoromethanesulfonate] + CO
refractive index, [2]
Conditions	288.15 K	298.15 K	308.15 K	318.15 K
x1 = 0.04981	1.35401	1.35019	1.34673	1.34425
x1 = 0.1006	1.37019	1.36654	1.3636	1.36131
x1 = 0.1503	1.38187	1.37846	1.37522	1.37261
x1 = 0.2002	1.39131	1.38786	1.38479	1.38175
x1 = 0.2516	1.39849	1.39527	1.39212	1.38903
x1 = 0.3018	1.40415	1.40103	1.3983	1.39535
x1 = 0.3977	1.41297	1.40987	1.40694	1.40394
x1 = 0.499	1.41931	1.4163	1.41325	1.41035
x1 = 0.5911	1.42382	1.42086	1.41783	1.41502
x1 = 0.7059	1.42818	1.42529	1.42236	1.41954
x1 = 0.8054	1.43127	1.42843	1.42553	1.42265
x1 = 0.8494	1.43236	1.42952	1.42665	1.42387
x1 = 0.9013	1.43359	1.4308	1.42799	1.42515
x1 = 1	1.43599	1.43322	1.4304	1.42767

CCO [ethanol]
Conditions	mass density [kg/m3]
[1]	785.1

CCO [ethanol] + CCn1cc[n+](C)c1.O=S(=O)([O-])C(F)(F)F
[2], x2 = 0
Conditions	refractive index
288.15 K	1.36358
298.15 K	1.3593
308.15 K	1.35503
318.15 K	1.35073
328.15 K	1.3463

CO [methanol]
Conditions	mass density [kg/m3]
[1]	786.49

CO [methanol] + CCn1cc[n+](C)c1.O=S(=O)([O-])C(F)(F)F
[2], x2 = 0
Conditions	refractive index
288.15 K	1.33071
298.15 K	1.32653
308.15 K	1.32237
318.15 K	1.3182

CCCO [propan-1-ol]
Conditions	mass density [kg/m3]
[1]	799.56

CCCO [propan-1-ol] + CCn1cc[n+](C)c1.O=S(=O)([O-])C(F)(F)F
[2], x2 = 0
Conditions	refractive index
288.15 K	1.38732
298.15 K	1.38318
308.15 K	1.37897
318.15 K	1.37471
328.15 K	1.37036
338.15 K	1.36587

CC(C)O [propan-2-ol]
Conditions	mass density [kg/m3]
[1]	780.89

CC(C)O [propan-2-ol] + CCn1cc[n+](C)c1.O=S(=O)([O-])C(F)(F)F
[2], x2 = 0
Conditions	refractive index
288.15 K	1.37924
298.15 K	1.37492
308.15 K	1.37048
318.15 K	1.36586
328.15 K	1.36103
338.15 K	1.35599
